This note sets out measurements from patent US20240016766A1, “PHARMACEUTICAL COMPOSITION FOR TREATMENT OF INNER EAR DISORDERS THROUGH LOCAL ADMINISTRATION IN THE TYMPANIC AREA” (priority 2020, published 2024).

Series [1] can be described thus: Pharmacokinetics after single ear canal administration: concentration in perilymph (Examples 1 and 2). Here is the method:
Pharmacokinetics study of different active agents has been conducted with ready-to-use formulations. The pharmacokinetic study consists of a single administration up to the eardrum on male Long Evans rats and assessment of the level of the active agent in middle ear area (tympanic bulla) and in the inner ear area (perilymph).
2. Route of administration: 20 μl of each formulation are delivered in the ear canal of one animal in one administration.
3. Animals: 6 male rats Long Evans, were obtained from Janvier Labs, Le Genest St Isle, 53941 St Berthevin, France. Acclimation Animals arrived on site at least 5 days before the experiment to allow optimal acclimation. Selection Animal health was examined on the day before starting the study, to ensure that only animals in good health were selected to enter the testing procedures. Identification: At the beginning of the study, animals were identified with a number on the tail. Each cage was labelled with a record card, indicating the test compound, the dose of administration and the identification of the animals Housing: Rats were housed in cages (1354G (Tecniplast, Lyon), dim 595*380 mm (w*d)), in a room where the air was continuously filtered, thereby avoiding any contamination. During experiments, rats were caged in groups of five (300-400 g) at a constant temperature with a day/night cycle of 12/12 hours. Animals received water (autoclaved water) and nutrition (ref A04C10), ad libitum.
4. Treatment and study design: The treatment was delivered into the ear canal and on the tympanic membrane on anesthetized rats (2.5% isoflurane). The exact volume of administration was determined during this first test and delivered (volume of 20 μL). Both ears were treated. After administration, the animal was kept on a heating pad for 5 minutes, positioned on its side to allow the compound to diffuse through the tympanic membrane. Then the second ear were administered, and the animal kept on its side for 5 minutes. Finally, the animal was kept on a ventral position until its recovery from anesthesia. The diffusion trough the tympanic membrane and into the inner ear and was assessed with the dosage of the perilymph sampling. Tympanic bulla sampling technique: After sacrifice of the rats, the right tympanic bulla was collected from each animal and transferred to an Eppendorf tube, weighed individually and frozen at −20° C. until analysis. Perilymph sampling technique: After sacrifice of the rats and extraction of the tympanic bulla from the left ear, a volume of about 1 μL of cochlear fluid at the base of the cochlea was sampled ex vivo. Tubes were weighed individually before and after sampling, and immediately transferred to a −20° C. freezer.
5. Bioanalysis: The concentration of each compound in the perilymph and in the tympanic bulla was quantified using an exploratory LC/MS-MS assay method in outsourcing laboratory (Eurofins Vergeze, France). The concentration of amitriptyline in plasma was assessed.
The same materials and methods were used as in Example 1.

A short description of series [2]: Further pharmacokinetics study, apricot oil formulations: concentration in perilymph (Example 3). It counts as in vivo, male Long Evans rats. Here is the method:
Apricot oil is present in the formulation as a solubilizing agent. α-(-)-bisabolol is used as diffusing agent. […] 2. […] 3. […] 4. […] Both ears were treated. […] 5. […]

Series [3] is described as follows: Pharmacokinetics after single ear canal administration: concentration in plasma. It counts as in vivo, male Long Evans rats. To be noted: from 1 to 8 hours after administration. Here is the method: 2. […] 3. […] Animals received water (autoclaved water) and nutrition (ref […]), ad libitum. 4. […] Both ears were treated. […] Perilymph sampling technique: […] […] 5. […] The concentration of amitriptyline in plasma was assessed.

Where [4] appears, read: after 8 hours from the administration onto the tympanic membrane, Example 1 conclusion.
[5] abbreviates: after 8 hours from the administration onto the tympanic membrane, Example 3 conclusion.

Regarding `O=c1cc(-c2ccccc2)oc2c(O)c(O)ccc12` [7,8-dihydroxyflavone], the “Presence within the inner ear (perilymph)” value is “present” in series [1] (rat, in vivo) and “present” in series [2] (rat, in vivo).
With `CN(C)CCC=C1c2ccccc2CCc2ccccc21` [amitriptyline], in series [1] (rat, in vivo), the “Presence within the inner ear (perilymph)” value is “present”. Besides, the Presence in plasma entry in series [3] is “present in plasma”.
For `C=C(C)[C@@H]1CCC(C)=C[C@H]1c1c(O)cc(CCCCC)cc1O` [cannabidiol], the “Presence within the inner ear (perilymph)” value in series [1] (setting [4]) is given as “present”.
As to `C[C@@H]1C[C@H]2[C@@H]3CCC4=CC(=O)C=C[C@]4(C)[C@@]3(F)[C@@H](O)C[C@]2(C)[C@@]1(O)C(=O)CO` [dexamethasone], the “Presence within the inner ear (perilymph)” value is “present” in series [1] (rat, in vivo) and “present” in series [2] (setting [5]).
Take `COc1ccc2c(c1)[C@]13CCCC[C@@H]1[C@H](C2)N(C)CC3` [dextromethorphan]: the “Presence within the inner ear (perilymph)” value in series [1] (setting [4]) was “present”.
Turning to `CC1CCCCC1(c1cccs1)N1CCCCC1` (stereo not shown) [gacyclidine], the “Presence within the inner ear (perilymph)” value in series [1] (setting [4]) was “present”.
`CCN(CC)CC(=O)Nc1c(C)cccc1C` [lidocaine]: the “Presence within the inner ear (perilymph)” value in series [2] (setting [5]) is listed as “present”.
As for `CCCN[C@H]1CCc2nc(N)sc2C1` [pramipexole], the “Presence within the inner ear (perilymph)” value in series [1] (rat, in vivo) was “present”.
Still for that read-out and setting: under `CCCN(CCC)CCc1cccc2c1CC(=O)N2` [ropinirole] stands “present”.
For `CC(C)c1cc2[nH]c(=O)n(NS(C)(=O)=O)c(=O)c2cc1-c1ccnn1C` [selurampanel], the “Presence within the inner ear (perilymph)” value in series [1] (setting [4]) is recorded as “present”.
